# Measured values: paper PMC8597734 (Antimicrobial Agents and Chemotherapy, 2021)
# Where two headings read alike, the source gives them in different places.
# How the values were obtained:
# [1] = tested on: M. abscessus Bamboo RM1 (GyrA M129K); assay: microbe, parasite or virus in culture; format: cell-based, Mycobacterium abscessus; details: Mycobacteroides abscessus
# [2] = tested on: M. abscessus subsp. abscessus M9; assay: microbe, parasite or virus in culture; format: cell-based, Mycobacterium abscessus; details: Mycobacteroides abscessus, 72 h
# [3] = tested on: M. abscessus subsp. abscessus M199; assay: microbe, parasite or virus in culture; format: cell-based, Mycobacterium abscessus; details: Mycobacteroides abscessus, 72 h
# [4] = tested on: M. abscessus subsp. bolletii M232; assay: microbe, parasite or virus in culture; format: cell-based, Mycobacterium abscessus; details: Mycobacteroides abscessus, 72 h
# [5] = tested on: M. abscessus Bamboo RM4 (GyrA D91G); assay: microbe, parasite or virus in culture; format: cell-based, Mycobacterium abscessus; details: Mycobacteroides abscessus
# [6] = tested on: M. abscessus ATCC 19977 MXF_R3 (GyrA D96G); assay: microbe, parasite or virus in culture; format: cell-based, Mycobacterium abscessus
# [7] = tested on: M. abscessus subsp. abscessus ATCC 19977; assay: microbe, parasite or virus in culture; format: cell-based, Mycobacterium abscessus; details: Mycobacteroides abscessus
# [8] = tested on: M. abscessus subsp. abscessus M422; assay: microbe, parasite or virus in culture; format: cell-based, Mycobacterium abscessus; details: Mycobacteroides abscessus, 72 h
# [9] = tested on: M. abscessus subsp. abscessus M337; assay: microbe, parasite or virus in culture; format: cell-based, Mycobacterium abscessus; details: Mycobacteroides abscessus, 72 h
# [10] = tested on: nutrient-starved, nonreplicating M. abscessus Bamboo; assay: MBC determination under nutrient-starved conditions; format: cell-based, Mycobacterium abscessus; details: Mycobacteroides abscessus, 48 h drug exposure
# Method: The determination of drug bactericidal activity against nutrient-starved M. abscessus cultures was performed as previously described ([52]). […] Washed culture was then diluted with PBS/Tyloxapol to OD600 = 0.2 (1.8 × 10^7 CFU/ml). […] Appropriate concentrations of drugs up to 100 μM were added to the tubes prior to incubation at 37°C on a tilted rack in an orbital shaker at 220 rpm.
# [11] = tested on: anaerobic, nonreplicating M. abscessus Bamboo; assay: MBC determination under anaerobic conditions; format: cell-based, Mycobacterium abscessus; details: Mycobacteroides abscessus, 48 h drug exposure
# [12] = tested on: M. abscessus Bamboo RM3 (GyrA D91N); assay: microbe, parasite or virus in culture; format: cell-based, Mycobacterium abscessus; details: Mycobacteroides abscessus
# [13] = tested on: M. avium 11; assay: microbe, parasite or virus in culture; format: cell-based; details: Mycobacterium avium, 11, 96 h
# [14] = tested on: M. abscessus subsp. abscessus M404; assay: microbe, parasite or virus in culture; format: cell-based, Mycobacterium abscessus; details: Mycobacteroides abscessus, 72 h
# [15] = tested on: M. abscessus ATCC 19977 MXF_R1 (GyrA D96Y); assay: microbe, parasite or virus in culture; format: cell-based, Mycobacterium abscessus
# [16] = tested on: M. abscessus Bamboo RM2 (GyrA D91N); assay: microbe, parasite or virus in culture; format: cell-based, Mycobacterium abscessus; details: Mycobacteroides abscessus
# [17] = tested on: M. abscessus subsp. bolletii CCUG 50184T; assay: microbe, parasite or virus in culture; format: cell-based, Mycobacterium abscessus; details: Mycobacteroides abscessus, 72 h
# [18] = tested on: M. abscessus subsp. abscessus K21; assay: M. abscessus mouse infection model; format: in vivo, Mycobacterium abscessus; details: NOD SCID mice, intranasal infection
# Method: In vivo efficacy determinations were carried out as described previously, using 8-week-old female NOD.CB17-Prkdc^scid/NCrCrl (NOD SCID) mice (Charles River Laboratories) and the M. abscessus subsp. abscessus K21 strain ([48]). Briefly, anesthetized animals were infected by intranasal delivery of ∼10^6 CFU of M. abscessus subsp. abscessus K21. Acute infection was achieved within 1 day. Drugs or the vehicle control was administered to NOD SCID mice once daily for 10 consecutive days by oral gavage, starting from 1 day postinfection. Clarithromycin was formulated in 0.4% methyl cellulose–sterile water and administered at a dose of 250 mg/kg. […] EC/11716 was formulated in 0.4% methyl cellulose–sterile water and administered at 400 mg/kg. All mice were euthanized 24 h after the last dose (11 days postinfection), and their lungs and spleen were aseptically removed prior to homogenization. The bacterial load in these organs was determined by plating serial dilutions of the organ homogenates onto Middlebrook 7H11 agar (BD Difco) supplemented with 0.2% (vol/vol) glycerol and 10% (vol/vol) OADC. The agar plates were incubated for 5 days at 37°C prior to counting of colonies. All studies were conducted in accordance with the GSK Policy on the Care, Welfare and Treatment of Laboratory Animals and were reviewed the Institutional Animal Care and Use Committee either at GSK or by the ethical review process at the institution where the work was performed. All experiments involving live animals were approved by the Institutional Animal Care and Use Committee of the Center for Discovery and Innovation, Hackensack Meridian Health.
# [19] = tested on: M. abscessus subsp. abscessus K21; assay: microbe, parasite or virus in culture; format: cell-based, Mycobacterium abscessus; details: Mycobacteroides abscessus, 72 h
# [20] = tested on: M. abscessus subsp. massiliense M111; assay: microbe, parasite or virus in culture; format: cell-based, Mycobacterium abscessus; details: Mycobacteroides abscessus, 72 h
# [21] = tested on: M. intracellulare ATCC 13950; assay: microbe, parasite or virus in culture; format: cell-based; details: Mycobacterium intracellulare, ATCC13950, 96 h
# [22] = tested on: M. abscessus Bamboo; assay: microbe, parasite or virus in culture; format: cell-based, Mycobacterium abscessus; details: Mycobacteroides abscessus
# [23] = tested on: M. abscessus subsp. massiliense CCUG 48898T; assay: microbe, parasite or virus in culture; format: cell-based, Mycobacterium abscessus; details: Mycobacteroides abscessus, 72 h
# [24] = tested on: M. abscessus Bamboo biofilms; assay: Biofilm growth inhibition assay (biofilm MIC and MBC); format: cell-based, Mycobacterium abscessus; details: Mycobacteroides abscessus, Biofilm, M. abscessus Bamboo; for MBC: 10-fold reduction of CFU/peg vs 24 h; for MIC: 90% reduction of CFU/peg relative to drug-free biofilm growth, 48 h
# Method: The biofilm growth inhibition assay was performed as previously described ([52]). Innovotech MBEC 96-well Biofilm Assay Plates (Innovotech 19111, Edmonton, AB, Alberta, Canada) were used, and the supplier’s manual was followed with minor modifications. Midlog phase M. abscessus Bamboo precultures (OD600 = 0.4–0.6) were spun down at 3,200 × g for 10 min at 25°C and washed with 7H9 medium without Tween 80 (7H9nt). Bacteria were resuspended into 25 ml 7H9nt to an OD600 = 0.0125 (1.0 × 10^6 CFU/ml). 150 μl of bacteria suspension was dispensed into each well of MBEC multititer plates and the polystyrene protrusions (pegs) of the MBEC lid were inserted into the culture-containing wells for 24 h at 37°C on an orbital shaker at 110 rpm to allow attachment of the bacteria to the pegs and initiation of biofilm growth. The lids with the pegs (now with 1-day-old biofilms) were transferred to new MBEC multititer plates containing 150 μl of fresh 7H9nt medium per well without bacteria (0 h time point). After that, the lids with biofilm-laden pegs were transferred once a day to a new multititer plate containing fresh 7H9nt medium. To measure growth of the biofilm formed on the peg, the pegs were washed in 200 μl of 7H9nt medium before they were aseptically removed and placed in 1.7 ml microcentrifuge tubes (VWR 87003-294, Rador, PA, United States) containing 500 μl PBS/Tween 80. The microcentrifuge tubes were vigorously vortexed at 2,000 rpm for 90 s at 25°C to detach the bacteria from the pegs before samples were serially diluted and plated for the determination of CFU/peg. […] The average drug-free biofilm growth was calculated by subtracting the average 24 h CFU/peg value from the average 72 h CFU/peg value for the untreated control pegs. The biofilm MIC was defined as the lowest drug concentration that reduced the CFU/peg by 90% relative to the average drug-free biofilm growth.
# [25] = tested on: M. abscessus ATCC 19977 MXF_R2 (GyrA D96N); assay: microbe, parasite or virus in culture; format: cell-based, Mycobacterium abscessus
# [26] = tested on: M. abscessus Bamboo; assay: MIC and MBC determination in culture tubes (planktonic); format: cell-based, Mycobacterium abscessus; details: for MBC: 10-fold reduction in CFU/ml vs day 0; for MIC: 48 h, day 2
# [27] = tested on: M. abscessus subsp. bolletii M506; assay: microbe, parasite or virus in culture; format: cell-based, Mycobacterium abscessus; details: Mycobacteroides abscessus, 72 h
# [28] = tested on: M. tuberculosis H37Rv ATCC 27294; assay: microbe, parasite or virus in culture; format: cell-based; details: Mycobacterium tuberculosis, 168 h
# [29] = Mycobacteroides abscessus, ATCC19977
Compound,MIC [1] [µM],MIC [2] [µM],MIC [3] [µM],MIC [4] [µM],MIC [5] [µM],"MIC [6, 29] [µM]",MIC ([7]; ATCC19977) [µM],"MIC ([7]; ATCC19977, 72 h) [µM]",MIC [8] [µM],MIC [9] [µM],MIC [12] [µM],MIC [13] [µM],MIC [14] [µM],"MIC [15, 29] [µM]",MIC [16] [µM],MIC [17] [µM],MIC [19] [µM],MIC [20] [µM],MIC [21] [µM],MIC [22] [µM],further results
"CC[C@H]1OC(=O)[C@H](C)[C@@H](O[C@H]2C[C@@](C)(OC)[C@@H](O)[C@H](C)O2)[C@H](C)[C@@H](O[C@@H]2O[C@H](C)C[C@H](N(C)C)[C@H]2O)[C@](C)(OC)C[C@@H](C)C(=O)[C@H](C)[C@@H](O)[C@]1(C)O [CLR, clarithromycin]",0.24,0.73,2.7,0.95,0.26,0.34,1.2,0.9,0.65,0.9,0.27,0.3,0.2,1.5,0.29,2.5,0.4,0.24,0.15,0.33,"MBC [10]: > 100 µM; MBC [11]: > 100 µM; reduction in lung CFU ([18]; 250 mg/kg oral once daily for 10 days, EC/11716 reduction stated on par with it): ~1 log; MIC ([22]; 72 h): 0.23 µM; MIC [23]: 0.19 µM; MBC [24]: > 100 µM; MIC [24]: 1.6 µM; MIC [25, 29]: 0.73 µM; MBC [26]: >100 µM; MBC ([26]; Mycobacteroides abscessus, 0 h): > 100 µM; MIC ([26]; Mycobacteroides abscessus): 0.28 µM; MIC [27]: 0.28 µM"
CO[C@H]1/C=C/O[C@@]2(C)Oc3c(C)c(O)c4c(O)c(c(/C=N/N5CCN(C)CC5)c(O)c4c3C2=O)NC(=O)/C(C)=C\C=C\[C@H](C)[C@H](O)[C@@H](C)[C@@H](O)[C@@H](C)[C@H](OC(C)=O)[C@@H]1C [rifampin],,,,,,,,,,,,,,,,,,,,,MIC [28]: 0.66 µM
"COc1c(N2C[C@@H]3CCCN[C@@H]3C2)c(F)cc2c(=O)c(C(=O)O)cn(C3CC3)c12 [MXF, moxifloxacin]",20,2.9,4.8,3.2,27,> 50,3.6,3.6,2.7,2.9,47,1.3,5,> 50,42,6.3,7.3,6.7,0.4,5.4,"MIC [6]: 54 µM; MIC [15]: >100 µM; reduction in lung CFU burden ([18]; 200 mg/kg oral once daily for 10 days, not statistically significant): 0.6 log; MIC ([22]; 72 h): 4.6 µM; MIC [23]: 8 µM; MIC [28]: 0.6 µM; MBC [24]: 25 µM; MIC [24]: 6 µM; MIC [25]: 68 µM; MIC [25, 29]: > 50 µM; MBC ([26]; Mycobacteroides abscessus, 0 h): 3.1 µM; MIC ([26]; Mycobacteroides abscessus): 1.9 µM; MIC [27]: 7.1 µM"
